{"source": "patent US20100160411A1", "about": "“BENZOXATHIINE AND BENZOXATHIOLE DERIVATIVES AND USES THEREOF” (Wyeth, priority 2006, published 2010)", "key": {"human 5-HT2C receptor": {"target": "T1, human 5-HT2C receptor (Homo sapiens, UniProt P28335)", "T1 sequence (P28335 33-458)": "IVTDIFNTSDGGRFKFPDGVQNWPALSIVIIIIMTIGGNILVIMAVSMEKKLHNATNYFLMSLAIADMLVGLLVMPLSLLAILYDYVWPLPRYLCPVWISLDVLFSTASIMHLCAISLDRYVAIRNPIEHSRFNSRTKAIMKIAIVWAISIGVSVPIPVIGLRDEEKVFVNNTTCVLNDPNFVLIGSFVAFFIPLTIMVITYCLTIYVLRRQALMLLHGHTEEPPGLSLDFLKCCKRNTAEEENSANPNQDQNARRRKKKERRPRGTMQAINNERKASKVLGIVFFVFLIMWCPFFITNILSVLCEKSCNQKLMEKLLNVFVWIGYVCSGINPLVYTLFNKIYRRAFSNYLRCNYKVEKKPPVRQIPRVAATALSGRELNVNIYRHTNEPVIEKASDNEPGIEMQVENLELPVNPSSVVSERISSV", "test": "calcium mobilization (FLIPR) in CHO cells stably expressing the human 5-HT2C receptor", "format": "cell-based"}, "[1]": {"target": "T2, human 5-hydroxytryptamine-2C (h5-HT2C) receptor (Homo sapiens, UniProt P28335)", "T2 construct": "expressed in transfected cells; host or cells: CHO (Chinese Hamster Ovary) cells; membrane preparation", "T2 sequence (P28335 33-458)": "T1 sequence (P28335 33-458)", "test": "[125I]DOI binding to membranes of CHO cells expressing the h5-HT2C receptor"}, "[2]": {"details": "read-out: 5-HT2C Binding Ki avg"}}, "note": "Read-outs that look alike come from different tables or passages of the source.", "data": [{"smiles": "NCC1CSc2cc(F)cc(-c3c(Cl)cccc3Cl)c2O1", "note": "(stereo not shown) [Example 1, C-[8-(2,6-Dichloro-phenyl)-6-fluoro-2,3-dihydro-benzo[1,4]oxathiin-2-yl]-methylamine]", "values": [{"measurement": "Emax", "setting": "human 5-HT2C receptor; CHO, read-out: 5-HT2C Function EMax (%)", "result": 70, "unit": "%"}, {"measurement": "EC50", "setting": "human 5-HT2C receptor; calcium mobilization, CHO cells, FLIPR, read-out: 5-HT2C Function EC50", "result": 356, "unit": "nM"}, {"measurement": "Ki", "setting": "[1]; [2]", "result": 0.535, "unit": "nM"}]}, {"smiles": "NCC1C[S+]([O-])c2cc(F)cc(-c3c(Cl)cccc3Cl)c2O1", "note": "(stereo not shown) [Example 2, C-[8-(2,6-Dichloro-phenyl)-6-fluoro-4-oxo-3,4-dihydro-2H-4lambda*4*-benzo[1,4]oxathiin-2-yl]-methylamine]", "values": [{"measurement": "Ki", "setting": "[1]; [2]", "result": 388, "unit": "nM"}]}, {"smiles": "NCC1CS(=O)(=O)c2cc(F)cc(-c3c(Cl)cccc3Cl)c2O1", "note": "(stereo not shown) [Example 3, C-[8-(2,6-Dichloro-phenyl)-6-fluoro-4,4-dioxo-3,4-dihydro-2H-4lambda*6*-benzo[1,4]oxathiin-2-yl]-methylamine]", "values": [{"measurement": "Ki", "setting": "[1]; [2]", "result": 11.7, "unit": "nM"}]}, {"smiles": "CSc1ccc2c(c1)C(N1CCN(C)CC1)Cc1ccccc1S2", "note": "(stereo not shown) [Methiothepin, reference compound]", "values": [{"measurement": "Ki", "setting": "[1]; reference compounds, 95% confidence interval in parentheses, [125I]DOI radioligand, CHO cell membranes, read-out: Ki", "result": 4.6, "unit": "nM"}]}, {"smiles": "COc1cc(CC(C)N)c(OC)cc1I", "note": "(stereo not shown) [[125I] DOI, reference compound]", "values": [{"measurement": "Kd", "setting": "[1]; saturation binding with increasing concentrations of [125I] DOI, read-out: dissociation constant, KD", "result": 0.4, "unit": "nM"}]}]}
